Data published in patent US20040197865A1, “Gene expression systems and recombinant cell lines” (3M Innovative Properties Company, priority 2002, published 2004).

The molecules below were run against T1, human TLR6 (Homo sapiens, UniProt Q9Y2C9) (assay: Luciferase induction off the IFN-α1 promoter in pIFN-α1-luc/pCI-TLR6 co-transfected Namalwa cells). Conditions: IRM compound 10 μM, 18 hours, fold increase compared to DMSO negative control, representative experiment.
T1 construct: expressed in transfected cells; host or cells: Namalwa cells (ATCC CRL-1432), co-transfected with pIFN-α1-luc and pCI-TLR6, G418-selected
T1 sequence (Q9Y2C9 32-796): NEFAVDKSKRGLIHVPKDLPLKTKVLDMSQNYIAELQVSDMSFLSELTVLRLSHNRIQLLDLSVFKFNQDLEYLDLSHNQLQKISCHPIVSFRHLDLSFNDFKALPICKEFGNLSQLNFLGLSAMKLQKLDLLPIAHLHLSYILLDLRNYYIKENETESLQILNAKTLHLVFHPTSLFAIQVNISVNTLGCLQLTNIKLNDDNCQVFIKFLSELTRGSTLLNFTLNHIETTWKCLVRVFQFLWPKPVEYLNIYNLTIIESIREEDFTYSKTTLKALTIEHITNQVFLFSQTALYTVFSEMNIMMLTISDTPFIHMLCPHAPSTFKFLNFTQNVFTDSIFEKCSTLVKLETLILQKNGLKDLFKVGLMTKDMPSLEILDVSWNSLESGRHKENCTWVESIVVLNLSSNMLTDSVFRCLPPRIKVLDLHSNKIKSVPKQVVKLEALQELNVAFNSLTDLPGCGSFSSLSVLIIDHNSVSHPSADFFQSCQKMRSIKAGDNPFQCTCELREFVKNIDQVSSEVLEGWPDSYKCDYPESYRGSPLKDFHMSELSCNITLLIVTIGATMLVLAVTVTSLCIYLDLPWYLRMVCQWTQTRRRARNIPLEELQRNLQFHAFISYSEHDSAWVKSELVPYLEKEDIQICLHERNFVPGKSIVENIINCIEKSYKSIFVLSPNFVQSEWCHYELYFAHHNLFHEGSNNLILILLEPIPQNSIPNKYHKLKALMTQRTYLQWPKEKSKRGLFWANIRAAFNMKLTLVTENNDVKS
T1 sequence (O60603 19-784 partner limits assumed): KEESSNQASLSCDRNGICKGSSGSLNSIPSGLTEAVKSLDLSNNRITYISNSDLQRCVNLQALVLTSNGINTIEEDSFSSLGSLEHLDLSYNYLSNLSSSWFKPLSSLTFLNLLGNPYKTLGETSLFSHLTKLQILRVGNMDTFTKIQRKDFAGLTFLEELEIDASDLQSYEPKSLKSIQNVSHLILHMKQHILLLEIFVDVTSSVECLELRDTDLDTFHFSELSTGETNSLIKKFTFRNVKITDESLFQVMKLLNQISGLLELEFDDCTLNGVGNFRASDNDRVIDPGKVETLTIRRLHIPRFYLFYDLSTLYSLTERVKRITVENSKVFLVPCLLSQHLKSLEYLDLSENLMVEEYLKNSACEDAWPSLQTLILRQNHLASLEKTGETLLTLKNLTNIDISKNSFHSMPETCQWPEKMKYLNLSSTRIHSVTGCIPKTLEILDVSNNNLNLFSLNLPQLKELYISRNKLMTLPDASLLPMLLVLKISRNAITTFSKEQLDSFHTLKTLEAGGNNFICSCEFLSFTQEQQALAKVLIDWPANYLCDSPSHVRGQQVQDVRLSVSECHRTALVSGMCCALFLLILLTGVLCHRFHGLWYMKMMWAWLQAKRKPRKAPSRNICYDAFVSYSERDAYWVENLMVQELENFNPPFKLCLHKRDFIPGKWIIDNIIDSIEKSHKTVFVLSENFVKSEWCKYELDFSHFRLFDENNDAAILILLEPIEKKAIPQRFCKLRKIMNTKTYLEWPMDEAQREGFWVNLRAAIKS
Assay type: cell-based
Description: The vector pIFN-α1-luc was constructed by inserting BglII sites at both ends of the human IFN-α1 promoter (SEQ ID NO:21). The BglII sites were inserted into the IFN-α1 promoter and the sequence was amplified using the primer pair of SEQ ID NO:22 and SEQ ID NO:23. The amplified IFN-α1 promoter was cloned into the pGL3-Enhancing vector (Promega Corp., Madison, Wis.) at its BglII site.
The vector pCI-TLR6 was constructed by inserting SEQ ID NO:11 (GenBank Accession No. NM 006068), which includes the human TLR6 coding sequence, into the pCI-neo mammalian expression vector (Promega Corp.) at the vector's NheI and MluI restriction sites.
Burkitt's Lymphoma lymphoblastoid Namalwa cells (ATCC Accession No. CRL-1432) were grown by incubation in culture medium overnight. Cells were harvested by centrifugation in a tabletop centrifuge (1200 RPM for 5 minutes), and then resuspended in phosphate buffered sucrose to a concentration of 1.3×10^7 cells per milliliter.
For each transfection, a 750 μL aliquot of the cell suspension was placed in an electroporation cuvette with 4 mm gaps. 10 μg of the pIFN-α1-luc vector and 10 μg of the pCI-TLR6 vector were added to the electroporation cuvette. The cell and vector mixtures were incubated at room temperature for 5 minutes. The cells were electroporated using a BioRad Gene Pulser (BioRad Laboratories, Hercules, Calif.) set to at 500 μF capacitance and […], then incubated at room temperature for 5 minutes.
The electroporated cells were suspended in 10 mLs of culture medium and incubated overnight. Dead cells and debris were removed after 24 hours using a MACS Dead Cell Removal kit (Miltenyi Biotec, Auburn, Calif.). Cells were resuspended in 10 mLs of culture medium and incubated for an additional 24 hours.
Transfected cells were selected by adding G418 (Promega Corp., Madison, Wis.) to a final concentration of 1 mg/mL and incubating the cells for seven days.
The selected transfected cells were counted and resuspended to a concentration of 1×10^6 cell per mL in culture medium. 100 μl aliquots of cells were placed in the wells of a white-walled, white-bottomed 96-well plate (Corning, Inc. Corning, N.Y.). 1.0 μL of an IRM compound from Table 1 (prepared at 1 mM in 100% DMSO) was added to some cell aliquots so that the final concentration of IRM compound was 10 μM. As a positive control, some cell aliquots were incubated with Sendai virus instead of IRM compound. As a negative control, some cell aliquots were incubated with DMSO without IRM compound. In all cases, the cells were incubated for 18 hours.
The plates were equilibrated to room temperature before 1 volume of reconstituted LucLight Plus (Packard Instruments, Meriden, Conn.) was added to each aliquot of cells. Each well of the plate was read on an LJL Analyst (LJL Biosystems, Inc., Sunnyvale, Calif.) set with a 5 minute dark adapt. The data are expressed as the fold increase in luciferase induction off of the IFN-α1 promoter in cell aliquots incubated with the indicated stimulant compared to the negative control in which the cell aliquots were incubated with only DMSO.
`CCc1nc2c(N)nc3ccccc3c2n1CCCCCS(C)(=O)=O` [IRM8, 2-ethyl-1-[5-(methylsulfonyl)pentyl]-1H-imidazo[4,5-c]quinolin-4-amine] was tested, and the “Fold Increase in Luciferase Induction” value was 2.3. For `COCCc1nc2c(N)nc3ccccc3c2n1CCCCNC(=O)c1ccc(-n2cccc2)nc1` [IRM7, N^3-{4-[4-amino-2-(2-methoxyethyl)-1H-imidazo[4,5-c]quinolin-1-yl]butyl}-6-(1H-1-pyrrolyl)nicotinamide], the “Fold Increase in Luciferase Induction” value was 3.2. In the case of `CCOCc1nc2c(N)nc3c(c2n1CC(C)(C)O)CCCC3` [IRM1, 4-amino-2-ethoxymethyl-α,α-dimethyl-6,7,8,9-tetrahydro-1H-imidazo[4,5-c]quinoline-1-ethanol], the “Fold Increase in Luciferase Induction” value is reported as 3.6. With `CCCCc1nc2c(N)nc3cccnc3c2n1CC(C)C` [IRM5, 2-butyl-1-(2-methylpropyl)-1H-imidazo[4,5-c][1,5]naphthyridin-4-amine] the “Fold Increase in Luciferase Induction” value was 3.2. `Cc1nc2c(N)nc3ccccc3c2n1CC(C)(C)O` [IRM2, 4-amino-α,α,2-trimethyl-1H-imidazo[4,5-c]quinoline-1-ethanol] was tested, and the “Fold Increase in Luciferase Induction” value was 2.7. With `CCCCc1nc2c(N)nc3ccccc3c2n1CCCCNS(C)(=O)=O` [IRM3, N-[4-(4-amino-2-butyl-1H-imidazo[4,5-c]quinolin-1-yl)butyl]methanesulfonamide] the “Fold Increase in Luciferase Induction” value was 2.6. With `CCCCc1nc2c(N)nc3c(c2n1CC(C)C)NCCC3` [IRM6, 2-butyl-6,7,8,9-tetrahydro-1-(2-methylpropyl)-1H-imidazo[4,5-c][1,5]naphthyridin-4-amine] the “Fold Increase in Luciferase Induction” value was 2.9. `Nc1nc2ccccc2c2c1ncn2CCOCCCc1cccnc1` [IRM4, 1-{2-[3-(3-pyridyl)propoxy]ethyl}-1H-imidazo[4,5-c]quinolin-4-amine] was tested, and the “Fold Increase in Luciferase Induction” value was 4.0.
